Some test systems named below: NCI-H522 lung; HOP-62 NSCLC; IGROV1 ovarian; KM12 colon; HCT-116 colon; OVCAR-5 ovarian; SN12C renal; PC-3 prostate; HS 578T breast; SF-539 CNS.
Common to all, as to experiment: inhibition of tumour cell growth, NCI panel, 48 h

Molecules are shown by their SMILES.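 Results reflect a 48-hour exposure of cells in 96-well plates to compound at five concentrations. At the GI50, growth is halved. The concentration for full growth arrest is given as TGI.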

Consider `COC(=O)c1c2c(c(C)[n+]([O-])c1C)C(=O)C(NCc1ccc(O)cc1)=CC2=O`, for which the GI50 with NCI-H522 lung was 1430 nM; in the test on HOP-62 NSCLC, 1960 nM; in the test with IGROV1 ovarian, 1590 nM; with KM12 colon, 1700 nM; in the test on HCT-116 colon, 333 nM; with OVCAR-5 ovarian it was 1770 nM. Moreover, the GI50 was 1230 nM in the test with SN12C renal, 2000 nM in the test with PC-3 prostate, 2300 nM in the test on HS 578T breast and 1680 nM in the test with SF-539 CNS. The TGI in the test with NCI-H522 lung was determined as 3490 nM; in the test on HOP-62 NSCLC, 4570 nM; in the test with IGROV1 ovarian, 3780 nM; in the test on KM12 colon it was 4100 nM; in the test with HCT-116 colon, 1240 nM; in the test with OVCAR-5 ovarian it was 3360 nM. Besides, the TGI with SN12C renal came to 2560 nM; in the test with PC-3 prostate it was 6550 nM; in the test with HS 578T breast, 6980 nM; in the test with SF-539 CNS, 3070 nM.

Take `COc1c(B(O)O)cccc1-c1nc2c(F)cc3n[nH]c(C)c3c2c2c1CCCC2`: the GI50 is 1110 nM in the test with NCI-H522 lung; 303 nM with HOP-62 NSCLC; 1120 nM in the test with IGROV1 ovarian; 1310 nM in the test on KM12 colon; 314 nM with HCT-116 colon; 1080 nM with OVCAR-5 ovarian. Moreover, the GI50 in the test on SN12C renal was 854 nM; with PC-3 prostate, 1460 nM; in the test on HS 578T breast it was 118 nM; in the test on SF-539 CNS, 212 nM. In addition, the TGI in the test with NCI-H522 lung was 8810 nM; in the test with HOP-62 NSCLC, more than 50000 nM; in the test on IGROV1 ovarian, more than 50000 nM; in the test with KM12 colon, more than 50000 nM; in the test on HCT-116 colon, more than 50000 nM; with OVCAR-5 ovarian, more than 50000 nM. Moreover, the TGI is more than 50000 nM in the test with SN12C renal, more than 50000 nM with PC-3 prostate, more than 50000 nM in the test with HS 578T breast and 2970 nM with SF-539 CNS.

With `CC(=O)ON=C1C=CC(=C(C#N)c2ccccc2)C=C1`, the GI50 in the test on NCI-H522 lung was 383 nM; in the test on HOP-62 NSCLC, 1630 nM; with IGROV1 ovarian, 1000 nM; in the test on KM12 colon it was 357 nM; with HCT-116 colon, 283 nM; in the test with OVCAR-5 ovarian it was 3220 nM. Further, the GI50 was 2490 nM in the test with SN12C renal, 476 nM in the test on PC-3 prostate, 3510 nM in the test on HS 578T breast and 671 nM in the test with SF-539 CNS. Further, the TGI with NCI-H522 lung was determined as 2480 nM; in the test with HOP-62 NSCLC, 9160 nM; with IGROV1 ovarian, 6900 nM; with KM12 colon it was 1710 nM; with HCT-116 colon, 11500 nM; with OVCAR-5 ovarian, 9280 nM. The TGI in the test with SN12C renal was 20900 nM; in the test with PC-3 prostate, 12300 nM; in the test with HS 578T breast, more than 31300 nM; in the test on SF-539 CNS, 11200 nM.

For `Nc1n[nH]c2ccc([C@@H]3Nc4ccc5cn[nH]c5c4[C@H]4C5CCC(C5)[C@@H]34)cc12` (stereo not given in full), the GI50 with NCI-H522 lung was 385 nM; in the test on HOP-62 NSCLC it was 485 nM; in the test on IGROV1 ovarian, 579 nM; in the test with KM12 colon, 470 nM; in the test on HCT-116 colon, 442 nM; in the test with OVCAR-5 ovarian, 1140 nM. For the same compound, the GI50 was 747 nM in the test on SN12C renal, 476 nM in the test with PC-3 prostate, 389 nM in the test on HS 578T breast and 299 nM with SF-539 CNS. Besides, the TGI in the test on NCI-H522 lung was 54600 nM; in the test with HOP-62 NSCLC, more than 70000 nM; in the test with IGROV1 ovarian, 62200 nM; with KM12 colon, 28000 nM; in the test with HCT-116 colon it was more than 100000 nM; in the test with OVCAR-5 ovarian, 99300 nM. Besides, the TGI with SN12C renal is more than 100000 nM; with PC-3 prostate it was more than 100000 nM; in the test on HS 578T breast, more than 100000 nM; with SF-539 CNS, 3380 nM.

In the case of `O=C(Nc1cccc(-n2cc(-c3ccncc3)c(-c3ccc(Cl)c(O)c3)n2)c1)Nc1ccc(Cl)c(Cl)c1`, the GI50 in the test on NCI-H522 lung is 1190 nM; with HOP-62 NSCLC, 2080 nM; in the test on IGROV1 ovarian it was 1770 nM; in the test on KM12 colon, 1010 nM; with HCT-116 colon, 1190 nM; in the test on OVCAR-5 ovarian, 2400 nM. The GI50 is 1310 nM with SN12C renal, 834 nM with PC-3 prostate, 785 nM in the test with HS 578T breast and 1340 nM with SF-539 CNS. Besides, the TGI was 10600 nM in the test on NCI-H522 lung; 17600 nM in the test on HOP-62 NSCLC; more than 32500 nM with IGROV1 ovarian; 4470 nM in the test with KM12 colon; 5730 nM with HCT-116 colon; more than 32500 nM with OVCAR-5 ovarian. The TGI with SN12C renal was more than 32500 nM; in the test on PC-3 prostate, more than 32500 nM; in the test with HS 578T breast, 3150 nM; in the test on SF-539 CNS, 8970 nM.

For the compound `Fc1ccc(Nc2nc3nonc3nc2Nc2ccc(I)cc2)cc1`, the GI50 was 192 nM in the test with NCI-H522 lung; 344 nM in the test with HOP-62 NSCLC; 217 nM with IGROV1 ovarian; 332 nM with KM12 colon; 240 nM in the test on HCT-116 colon; 373 nM in the test on OVCAR-5 ovarian. The GI50 was 260 nM in the test with SN12C renal, 181 nM in the test on PC-3 prostate, 617 nM in the test with HS 578T breast and 275 nM in the test with SF-539 CNS. The TGI in the test on NCI-H522 lung came to 693 nM; with HOP-62 NSCLC, 1920 nM; in the test with IGROV1 ovarian, 13300 nM; in the test with KM12 colon, 11400 nM; with HCT-116 colon, 11300 nM; in the test with OVCAR-5 ovarian it was 20200 nM. Also, the TGI in the test with SN12C renal was 11200 nM; in the test on PC-3 prostate, 10700 nM; with HS 578T breast it was 13600 nM; in the test with SF-539 CNS, 2580 nM.

These data come from PubChem BioAssay (NCI).
